Tests used:
[1] = molecular target: Sodium-dependent noradrenaline transporter (Homo sapiens, UniProt P23975); test: DRUGMATRIX: Norepinephrine Transporter radioligand binding (ligand: [125I] RTI-55); type: cell membranes, MDCK, Membrane; conditions: Not Active = under 50% inhibition at 10 µM; for Ki: read-out: Ki
[2] = molecular target: T1, Substance-K receptor (Homo sapiens, UniProt P21452); type: cell membranes, CHO, Membrane; further: in other assays of this panel Not Active means under 50% inhibition at 10 µM
T1 sequence (P21452 whole entry): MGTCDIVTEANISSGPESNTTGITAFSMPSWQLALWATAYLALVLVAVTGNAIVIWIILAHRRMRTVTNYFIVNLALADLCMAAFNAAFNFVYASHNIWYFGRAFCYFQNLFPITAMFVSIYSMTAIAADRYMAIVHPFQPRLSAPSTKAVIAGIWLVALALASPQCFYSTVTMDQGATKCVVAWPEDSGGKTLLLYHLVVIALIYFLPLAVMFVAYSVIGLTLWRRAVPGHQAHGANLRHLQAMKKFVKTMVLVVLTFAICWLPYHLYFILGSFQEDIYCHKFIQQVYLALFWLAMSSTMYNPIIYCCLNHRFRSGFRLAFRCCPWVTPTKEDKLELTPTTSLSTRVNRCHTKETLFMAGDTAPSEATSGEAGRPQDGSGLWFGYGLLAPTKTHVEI

[3] = molecular target: Vasopressin V1a receptor (Homo sapiens, UniProt P37288); type: cell membranes, Membrane; conditions: hek293; further: in other assays of this panel Not Active means under 50% inhibition at 10 µM
[4] = DRUGMATRIX: Glutamate, NMDA, Agonism radioligand binding (ligand: [3H] CGP-39653); type: cell membranes, Rattus norvegicus, Wistar, Cerebral cortex, Membrane; conditions: Not Active = under 50% inhibition at 10 µM
[5] = molecular target: T2, 3-hydroxy-3-methylglutaryl-coenzyme A reductase (Homo sapiens, UniProt P04035); parameters: species or system Escherichia coli;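 further: enzyme inhibition assay of HMG-CoA reductase using radiolabeled [14C]HMG-CoA as substrate; in other assays of this panel Not Active means under 50% inhibition at 10 µM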
T2 sequence (P04035 whole entry): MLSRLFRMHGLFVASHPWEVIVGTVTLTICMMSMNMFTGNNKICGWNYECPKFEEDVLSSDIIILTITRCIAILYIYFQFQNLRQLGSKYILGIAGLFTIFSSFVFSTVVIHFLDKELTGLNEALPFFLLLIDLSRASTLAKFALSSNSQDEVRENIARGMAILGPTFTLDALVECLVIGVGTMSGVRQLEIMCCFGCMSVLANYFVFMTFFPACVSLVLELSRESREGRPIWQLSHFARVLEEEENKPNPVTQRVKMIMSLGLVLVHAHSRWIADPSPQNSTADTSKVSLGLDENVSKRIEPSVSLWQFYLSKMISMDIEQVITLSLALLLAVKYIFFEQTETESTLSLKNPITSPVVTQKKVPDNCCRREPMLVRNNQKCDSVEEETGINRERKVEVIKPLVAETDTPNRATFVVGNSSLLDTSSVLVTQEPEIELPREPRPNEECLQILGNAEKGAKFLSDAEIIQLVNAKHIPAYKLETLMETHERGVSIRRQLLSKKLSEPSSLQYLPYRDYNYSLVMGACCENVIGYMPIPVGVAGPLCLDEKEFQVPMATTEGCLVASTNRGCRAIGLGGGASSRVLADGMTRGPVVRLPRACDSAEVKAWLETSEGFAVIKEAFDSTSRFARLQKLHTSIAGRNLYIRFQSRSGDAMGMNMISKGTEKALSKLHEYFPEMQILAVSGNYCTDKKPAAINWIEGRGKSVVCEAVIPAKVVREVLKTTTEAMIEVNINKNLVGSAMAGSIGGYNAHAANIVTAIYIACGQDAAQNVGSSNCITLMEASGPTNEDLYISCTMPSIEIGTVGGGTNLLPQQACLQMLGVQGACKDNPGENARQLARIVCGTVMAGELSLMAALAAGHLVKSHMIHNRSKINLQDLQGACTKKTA

[6] = molecular target: cGMP-specific 3',5'-cyclic phosphodiesterase (Homo sapiens, UniProt O76074); test: DRUGMATRIX: Phosphodiesterase PDE5 enzyme inhibition (substrate: [3H]cGMP + cGMP); type: tissue-based, Platelet; conditions: platelet; Not Active = under 50% inhibition at 10 µM
[7] = molecular target: Tyrosine-protein kinase Lck (Homo sapiens, UniProt P06239); test: DRUGMATRIX: Protein Tyrosine Kinase, LCK enzyme inhibition (substrate: Poly(Glu:Tyr)); type: cell-based, Insect cells; conditions: Not Active = under 50% inhibition at 10 µM
Tyrosine-protein kinase Lck, sequence (P06239 whole entry): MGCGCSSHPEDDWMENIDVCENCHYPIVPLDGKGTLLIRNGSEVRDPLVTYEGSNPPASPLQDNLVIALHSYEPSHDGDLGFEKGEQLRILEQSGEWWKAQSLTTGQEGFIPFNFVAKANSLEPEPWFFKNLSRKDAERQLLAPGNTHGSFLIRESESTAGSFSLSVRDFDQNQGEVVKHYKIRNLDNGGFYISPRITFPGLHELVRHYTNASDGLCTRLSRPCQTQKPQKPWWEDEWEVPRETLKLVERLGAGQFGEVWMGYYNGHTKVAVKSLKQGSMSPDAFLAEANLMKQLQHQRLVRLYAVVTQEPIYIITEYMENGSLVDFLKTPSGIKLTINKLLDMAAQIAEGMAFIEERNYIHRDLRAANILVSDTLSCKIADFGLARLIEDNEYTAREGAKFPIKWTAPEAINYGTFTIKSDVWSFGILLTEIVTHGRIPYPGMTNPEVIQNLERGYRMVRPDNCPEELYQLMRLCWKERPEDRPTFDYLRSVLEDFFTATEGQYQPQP

Vasopressin V1a receptor, sequence (P37288 whole entry): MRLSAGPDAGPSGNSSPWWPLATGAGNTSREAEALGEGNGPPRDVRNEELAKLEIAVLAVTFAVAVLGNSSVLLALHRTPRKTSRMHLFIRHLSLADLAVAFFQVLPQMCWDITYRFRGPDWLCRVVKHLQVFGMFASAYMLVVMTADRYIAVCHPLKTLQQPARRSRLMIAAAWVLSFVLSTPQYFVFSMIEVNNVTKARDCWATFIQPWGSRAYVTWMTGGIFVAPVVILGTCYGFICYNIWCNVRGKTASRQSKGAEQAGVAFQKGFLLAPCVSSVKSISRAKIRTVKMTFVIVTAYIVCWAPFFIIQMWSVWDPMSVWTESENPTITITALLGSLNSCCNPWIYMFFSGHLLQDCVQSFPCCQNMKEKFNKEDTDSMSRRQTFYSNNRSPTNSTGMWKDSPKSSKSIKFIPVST
Sodium-dependent noradrenaline transporter, sequence (P23975 whole entry): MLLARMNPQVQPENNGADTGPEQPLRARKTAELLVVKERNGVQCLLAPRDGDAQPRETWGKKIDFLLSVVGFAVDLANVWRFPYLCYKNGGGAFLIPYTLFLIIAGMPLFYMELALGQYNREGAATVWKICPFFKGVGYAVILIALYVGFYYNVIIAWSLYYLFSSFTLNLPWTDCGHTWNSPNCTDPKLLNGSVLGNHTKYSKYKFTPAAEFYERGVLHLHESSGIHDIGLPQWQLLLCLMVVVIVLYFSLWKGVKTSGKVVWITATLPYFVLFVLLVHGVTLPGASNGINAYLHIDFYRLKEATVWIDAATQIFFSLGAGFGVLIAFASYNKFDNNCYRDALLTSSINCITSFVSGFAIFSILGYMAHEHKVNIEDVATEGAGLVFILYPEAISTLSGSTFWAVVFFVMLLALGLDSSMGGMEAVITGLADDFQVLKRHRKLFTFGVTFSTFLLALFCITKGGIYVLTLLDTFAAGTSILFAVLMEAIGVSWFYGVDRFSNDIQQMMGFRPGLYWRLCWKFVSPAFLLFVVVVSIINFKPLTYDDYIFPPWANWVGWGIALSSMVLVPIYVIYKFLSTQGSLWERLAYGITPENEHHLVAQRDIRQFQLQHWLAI

SMILES | IC50 ([1]; read-out: IC50) [µM] | Ki [1] [µM] | IC50 ([2]; cho) | IC50 [3] | IC50 [4] | Ki [4] | IC50 [5] | IC50 [6] | IC50 ([7]; insect cells) | IC50 ([1]; mdck) | IC50 ([2]; read-out: IC50) [µM] | Ki ([2]; read-out: Ki) [µM] | IC50 ([7]; read-out: IC50) [µM]
CCOc1nc2cccc(C(=O)O)c2n1Cc1ccc(-c2ccccc2-c2nnn[nH]2)cc1 | 3.07 | 3.04 | Not Active | Not Active | Not Active | Not Active | Not Active | Not Active | Not Active |  |  |  | 
O=C(O)CCCc1cccs1 |  |  | Not Active | Not Active | Not Active | Not Active | Not Active | Not Active | Not Active | Not Active |  |  | 
COc1ccccc1N |  |  | Not Active | Not Active | Not Active | Not Active | Not Active | Not Active | Not Active | Not Active |  |  | 
O=C(c1ccccc1F)N1CCC(Cc2ccccc2)CC1 |  |  | Not Active | Not Active | Not Active | Not Active | Not Active | Not Active | Not Active | Not Active |  |  | 
Cc1c(O)cccc1C(=O)N[C@@H](CSc1ccccc1)[C@H](O)CN1C[C@H]2CCCC[C@H]2C[C@H]1C(=O)NC(C)(C)C | 8.85 | 8.78 |  | Not Active | Not Active | Not Active | Not Active | Not Active |  |  | 29.4 | 9.79 | 79.2
CC(O)COC[C@H]1O[C@@H]2O[C@H]3[C@H](O)[C@@H](O)[C@@H](O[C@H]4[C@H](O)[C@@H](O)[C@@H](O[C@H]5[C@H](O)[C@@H](O)[C@@H](O[C@H]6[C@H](O)[C@@H](O)[C@@H](O[C@H]7[C@H](O)[C@@H](O)[C@@H](O[C@H]8[C@H](O)[C@@H](O)[C@@H](O[C@H]1[C@H](O)[C@H]2O)O[C@@H]8COCC(C)O)O[C@@H]7COCC(C)O)O[C@@H]6COCC(C)O)O[C@@H]5COCC(C)O)O[C@@H]4COCC(C)O)O[C@@H]3COCC(C)O (stereo partly drawn) [2-HYDROXYPROPYL-BETA-CYCLODEXTRIN] | 1.27 | 1.26 | Not Active | Not Active | Not Active | Not Active | Not Active | Not Active | Not Active |  |  |  | 
NC(=O)c1cccc(N)c1 [3-AMINOBENZAMIDE] |  |  | Not Active | Not Active | Not Active | Not Active | Not Active | Not Active | Not Active | Not Active |  |  | 
C[C@H]1O[C@H](O[C@H]2[C@H](O)[C@@H](O)[C@@H](O[C@H]3[C@H](O)[C@@H](O)C(O)O[C@@H]3CO)O[C@@H]2CO)[C@H](O)[C@@H](O)[C@@H]1N[C@H]1C=C(CO)[C@@H](O)[C@H](O)[C@H]1O (stereo partly drawn) [ACARBOSE] |  |  | Not Active | Not Active | Not Active | Not Active | Not Active | Not Active | Not Active | Not Active |  |  | 
CC[C@H]1[C@@H]2C[C@H]3[C@@H]4N(C)c5ccccc5[C@]45C[C@@H]([C@@H]2[C@H]5O)N3[C@@H]1O [AJMALINE] |  |  | Not Active | Not Active | Not Active | Not Active | Not Active | Not Active | Not Active | Not Active |  |  | 
NC12CC3CC(CC(C3)C1)C2 [AMANTADINE] |  |  | Not Active | Not Active | Not Active | Not Active | Not Active | Not Active | Not Active | Not Active |  |  | 
NCCCNCCSP(=O)(O)O [AMIFOSTINE] |  |  | Not Active | Not Active | Not Active | Not Active | Not Active | Not Active | Not Active | Not Active |  |  | 
CN(C)CCC=C1c2ccccc2CCc2ccccc21 [AMITRIPTYLINE] |  |  | Not Active | Not Active | Not Active | Not Active | Not Active | Not Active | Not Active |  |  |  | 
CC(=O)Oc1ccccc1C(=O)O [ASPIRIN] |  |  | Not Active | Not Active | Not Active | Not Active | Not Active | Not Active | Not Active | Not Active |  |  | 
CC(C)c1c(C(=O)Nc2ccccc2)c(-c2ccccc2)c(-c2ccc(F)cc2)n1CC[C@@H](O)C[C@@H](O)CC(=O)O [ATORVASTATIN] |  |  | Not Active | Not Active | Not Active | Not Active |  | Not Active | Not Active | Not Active |  |  | 
CC(=O)OC[C@H]1O[C@@H](n2ncc(=O)[nH]c2=O)[C@H](OC(C)=O)[C@@H]1OC(C)=O [AZARIBINE] |  |  | Not Active | Not Active | Not Active | Not Active | Not Active | Not Active | Not Active | Not Active |  |  | 
C[C@H]1[C@H](NC(=O)/C(=N\OC(C)(C)C(=O)O)c2csc(N)n2)C(=O)N1S(=O)(=O)O [AZTREONAM] |  |  | Not Active | Not Active | Not Active | Not Active | Not Active | Not Active | Not Active | Not Active |  |  | 
O=C(O)CCNC(=O)c1ccc(/N=N/c2ccc(O)c(C(=O)O)c2)cc1 [BALSALAZIDE] |  |  | Not Active | Not Active | Not Active | Not Active | Not Active | Not Active | Not Active | Not Active |  |  | 
COc1cc(OC)c(C(=O)CCCN2CCCC2)c(OC)c1 [BUFLOMEDIL] |  |  | Not Active | Not Active | Not Active | Not Active | Not Active | Not Active | Not Active | Not Active |  |  | 
Cn1c(=O)c2c(ncn2C)n(C)c1=O [CAFFEINE] |  |  | Not Active | Not Active | Not Active | Not Active | Not Active | Not Active | Not Active | Not Active |  |  | 
ClC(Cl)(Cl)Cl [CARBON TETRACHLORIDE] |  |  | Not Active | Not Active | Not Active | Not Active | Not Active | Not Active | Not Active | Not Active |  |  | 
C[C@H]1COc2c(N3CCN(C)CC3)c(F)cc3c(=O)c(C(=O)O)cn1c23.C[C@H]1COc2c(N3CCN(C)CC3)c(F)cc3c(=O)c(C(=O)O)cn1c23.O [LEVOFLOXACIN] |  |  | Not Active | Not Active | Not Active | Not Active | Not Active | Not Active | Not Active |  |  |  | 
CN1CCCC(CN2c3ccccc3Sc3ccccc32)C1 (stereo not drawn) [MEPAZINE] | 1.88 | 1.86 | Not Active | Not Active |  |  | Not Active | Not Active | Not Active |  |  |  | 
C[C@@H]1O[C@@H](O[C@H]2C[C@@H](O)[C@]3(CO)[C@H]4[C@H](O)C[C@]5(C)[C@@H](C6=CC(=O)OC6)CC[C@]5(O)[C@@H]4CC[C@]3(O)C2)[C@H](O)[C@H](O)[C@H]1O [OUABAIN] |  |  | Not Active | Not Active | Not Active | Not Active | Not Active | Not Active | Not Active |  |  |  | 
